Among the data in paper PMC6934184, “Selective DNA-PKcs inhibition extends the therapeutic index of localized radiotherapy and chemotherapy” (The Journal of Clinical Investigation, 2019) are inhibition values, retold here.

The term inhibition denotes the relative decrease from the control value, in per cent.

The target of the assay is T1, CAMK2A (CaMKII alpha) (Homo sapiens, UniProt Q9UQM7).
T1 construct: purchased Thermo Fisher Scientific (Life Technologies) SelectScreen
In words: SelectScreen Z'LYTE. In kind it is biochemical. An outline of the steps: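 NU5455 was profiled across the SelectScreen Broad panel of kinase activity and binding assays. Z'LYTE reactions such as CSF1R ran at apparent Km ATP, while the Adapta CAMK1 assay used ATP listed as 10. Values are given as percent.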

T1 sequence (Q9UQM7 whole entry): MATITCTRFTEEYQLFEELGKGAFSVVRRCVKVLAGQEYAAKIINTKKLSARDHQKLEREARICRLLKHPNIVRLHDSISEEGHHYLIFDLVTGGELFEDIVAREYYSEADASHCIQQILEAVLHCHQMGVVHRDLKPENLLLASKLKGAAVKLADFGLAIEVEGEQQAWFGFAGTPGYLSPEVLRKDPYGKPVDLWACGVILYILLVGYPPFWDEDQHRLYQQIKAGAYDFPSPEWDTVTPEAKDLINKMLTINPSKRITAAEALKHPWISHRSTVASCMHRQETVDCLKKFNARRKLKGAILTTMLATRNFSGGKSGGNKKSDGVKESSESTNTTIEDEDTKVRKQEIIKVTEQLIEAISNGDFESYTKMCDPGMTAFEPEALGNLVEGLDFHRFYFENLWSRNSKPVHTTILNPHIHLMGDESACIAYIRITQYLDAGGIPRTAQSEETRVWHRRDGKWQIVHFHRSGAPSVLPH

For the compound `CN(C(=O)CN1CCOCC1)c1ccc2sc3c(-c4cccc5c(=O)cc(N6CC7CCC(C6)O7)oc45)cccc3c2c1` [NU5455], the inhibition at 1 µM was -0.6%.
